Laboratory results: US12466839B2, “Allosteric AKT inhibitors for use in the treatment of Hereditary Hemorrhagic Telangiectasia” (VADERIS THERAPEUTICS AG, priority 2020, dated 2025)
Entries after “also recorded” stand apart in the source; their conditions may differ. One block for each compound: values may come before it.

Experiments:
[1] = Pup lethality / adverse effects in Eng-iKO mice; assay type: in vivo
Method: The Eng Flox/flox; cdh5-CreERT2 were injected with tamoxifen (50 μg) at P2 to induce nearly […] The same volume of vehicle was injected serving as control animals. Mice were then euthanized at P7 and retinas processed for immunofluorescence staining as described (Lebrin et al., as above).
(§1) The same volume of vehicle was injected serving as control animals. Mice were then euthanized at P7 and retinas processed for immunofluorescence staining as described (Lebrin et al., as above).

[2] = test system: AVM formation in Eng-iKO mice; assay: Prevention of AVM formation in Eng-iKO mice (retinal vascular network); assay type: in vivo, mouse
Method: The Eng Flox/flox; cdh5-CreERT2 were injected with tamoxifen (50 μg) at P2 to […] once at P3, P4, P5 and P6. The same volume of vehicle was injected serving as control animals. Mice were then euthanized at P7 and retinas processed for immunofluorescence staining as described (Lebrin et al., as above).
as §1
(§2) For the retinal vascular network, quantification of the number of AV shunts per mouse was done manually. […] A custom own-lab made macro allowed automatic processing of the images, using the same processing and quantification parameters. Briefly, the brightness of the images was enhanced by modifying the pixel extreme values, which depends on the specific image histogram content. A Gaussian filter was applied to reduce the intensity in homogeneities. The filter order depended on the image resolution. Next, the threshold step was computed, based on a global threshold technique such as Otsu's method or Li's method, resulting in binary image. A median filter was then applied to eliminate potential local irregularities, which could cause false branching point detection. From the binary images, the vascular density was quantified (calculated as the ratio of pixels associated with the vessels divided by the total number of pixels in the image). For the other parameters, a skeleton of the images was first computed using ImageJ, then the total vascular length was quantified using the Measure Skeleton Length plug-in from ImageJ. The number of branch points was extracted from the Analyze Skeleton plug-in of ImageJ. All results were transferred to Microsoft Office Excel software and automatically rearranged using a lab custom-made program. As all images generated at each step of the processing were saved, a visual control was made to ensure that there were no aberrant results.
(§3) Statistical analysis was performed with Prism 7 software (GraphPad). For most of the experiments, 1-way ANOVA was used for multiple comparisons. Results are expressed as mean±SEM. For post hoc pairwise, the Dunnett's test was used. A value of *P<0.05, **P<0.01, ***P<0.001 or ****P<0.0001 denotes statistical significance. An in-group variation of around 15% in parameters related to blood vessel architecture changes has been previously observed by the inventors, therefore a difference between controls and mutant mice of around 20-30% was anticipated. It was therefore expected that a group of 8 mice per condition would reveal statistical differences.
(§4) Eyes were fixed in 4% paraformaldehyde (PFA) in PBS at room temperature for 10 min, retinas were dissected, post-fixed in 4% PFA in PBS at 4° C. overnight then processed for immunostaining. Retinas were permeabilized in PBS, 1% BSA and 0.5% Triton X-100 at 4° C. overnight, rinsed in PBS, washed twice in PBlec (PBS, pH 6.8, 1% Triton-X-100, 0.1 mM CaCl2, 0.1 mM MgCl2, 0.1 mM MnCl2), and then incubated in biotinylated Griffonia simplicifolia lectin (isolectin B4) (B-1205, Vector Laboratories, 1:50) in PBlec at 4° C. overnight. After 5 washes in PBS, samples were incubated with streptavidin Cy-3 (PA43001, Sigma-Aldrich, 1:100) and with a-SMA (clone 1A4) (F3777, Sigma-Aldrich) conjugated with FITC diluted in PBS, 0.5% BSA, and 0.25% X-100 at 4° C. for 2 h. After washing, flat whole-mount retinas were mounted in DAKO medium (S3023, Dako). Complete high-resolution 3-dimensional rendering of whole-mount retinas was acquired using Laser Scanning Microscope SP5 or SP8 (Leica).

[3] = test system: angiogenesis in C57Bl/6J mice retinas; assay: Neonatal retinal angiogenesis model in wild-type mice; assay type: in vivo, mouse (C57Bl/6J); settings: for anti-angiogenic properties (overall conclusion): mouse retinas
Source text: as §2, §3, §4

[4] = test system: AKT kinase in Pi3Kα or PTEN mutant cells lines (e.g. MCF7, BT474 or LnCAP); settings: similar cell line; cited from earlier work
[5] = Safety/toxicity profile in wild-type neonatal mice
Source text: C57Bl/6J pregnant females were provided by Janvier Labs. EngFlox/flox mice (Mahmoud et al., (2010), “Pathogenesis of arteriovenous malformations in the absence of endoglin”, Circulation Research. https://doi.org/10.1161/[…].109.211037) were crossed with Cdh5(PAC)-CreERT2 (12) to generate endothelial specific inducible Eng knockout. Animal housing and procedures were in accordance with the Dutch Government guidelines and directive 2010/63/EU of the European Parliament. All efforts were made to minimize the number of animals used and their suffering. The institutional Committee for Animal Welfare of Leiden University Medical Center (project number AVD1160020171628) approved all protocols. Male and female mice were used during the first postnatal week to study retinal angiogenesis.
Retinas were processed for immunofluorescence staining as described (Lebrin et al., (2010), “Thalidomide stimulates vessel maturation and reduces epistaxis in individuals with hereditary hemorrhagic telangiectasia”, Nature Medicine. https://doi.org/10.1038/nm.2131).

[6] = Pharmacokinetics (PK) profile in neonate mice; assay type: in vivo, mouse
Method: Terminal blood samples collected at 24 h and 48 h post injections were collected from each mouse under isoflurane anaesthesia for the preparation of plasma. 4 neonate mice were used per time point in the study. Blood was collected into EDTA coated microvettes (Sartsed) for plasma preparation. Blood was centrifuged at 2700×g for 10 minutes and approximately 30 to 40 μl plasma was removed and aliquoted into polypropylene tubes (two aliquots per animal). Plasma samples were stored at −80° C. until bioanalysis. VAD044 compound levels in plasma samples was determined by LC-MS/MS.

[7] = test system: nosebleeds in HHT patients; settings: HHT patients (Lebrin et al.); cited from earlier work
AKT2 = AKT2 (Homo sapiens, UniProt P31751); assay: Co-crystal structure in complex with AKT2; assay type: binding; settings: 2.32 Å co-crystal structure with AKT2
[8] = once at P4, 5 to 25 mg·kg-1, i.p

Sequence of AKT2 (P31751 whole entry): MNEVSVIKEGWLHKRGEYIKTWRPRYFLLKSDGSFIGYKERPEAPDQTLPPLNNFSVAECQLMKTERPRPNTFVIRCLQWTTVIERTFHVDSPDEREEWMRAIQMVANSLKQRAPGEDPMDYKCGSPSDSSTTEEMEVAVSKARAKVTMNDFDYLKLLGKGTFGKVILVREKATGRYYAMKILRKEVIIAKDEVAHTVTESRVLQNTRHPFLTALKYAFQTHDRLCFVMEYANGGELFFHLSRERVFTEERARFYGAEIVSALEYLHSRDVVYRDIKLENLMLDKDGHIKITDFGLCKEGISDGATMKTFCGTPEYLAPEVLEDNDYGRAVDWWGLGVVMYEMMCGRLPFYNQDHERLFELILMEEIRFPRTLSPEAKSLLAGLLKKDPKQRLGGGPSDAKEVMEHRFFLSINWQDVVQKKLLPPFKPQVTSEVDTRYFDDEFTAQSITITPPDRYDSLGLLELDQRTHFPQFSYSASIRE

Compound: CCCCCCCCCCCCCCCCCCOP(=O)([O-])OC1CC[N+](C)(C)CC1 [Perifosine]
- pup death ([1]; daily intraperitoneal administration at 25 mg·kg-1): resulted in pup death
- prevention of AVM formation ([2]; Eng-iKO mice, 25 or 50 mg·kg-1 i.p at P3 and P5, or 10 mg·kg-1 daily P3 to P6): unable to prevent AVM formation
- inhibition of angiogenesis in Eng-iKO mice ([2]; Eng-iKO mice, doses and injection schemes tested): did not inhibit angiogenesis
- effects in shunt formation ([2]; HHT1 mouse model, 25 and 50 mg·kg-1): no significant effects
- efficacy on shunt formation ([2]; injected every day at 10 mg·kg-1): trend for efficacy was observed but statistical significance was not achieved
- anti-angiogenic properties (overall conclusion) [3]: weak anti-angiogenic properties
- vascular radial expansion ([3]; once at P4, 100 mg·kg-1): reduced vascular radial expansion
- effect on angiogenesis ([3]; once at P4, 5 to 10 mg·kg-1): did not affect angiogenesis
- number of branch points and vascular area of the retinal vascular bed ([3]; once at P4, 25 to 100 mg·kg-1): slight reduction
- cellular inhibitory activity on AKT [4]: uM range
- weight gain ([5]; injected once at P4, 50 mg·kg-1): delayed weight gain
- pup mortality ([5]; injected once at P4, 100 mg·kg-1): induced important pup mortality
- adverse effects ([5]; injected once at P4, 5 to 25 mg·kg-1): No adverse effects

- Cavg (effective concentration) [6]: 22.9 ng/mL
Compound: CCN1C(=O)COc2nc(-c3ccc([C@]4(N)C[C@@H](O)C4)cc3)c(-c3ccccc3)cc21 [VAD044 free base, 6-(4-(1-amino-3-hydroxycyclobutyl)phenyl)-1-ethyl-7-phenyl-1H-pyrido[2,3-b][1,4]oxazin-2(3H)-one]

Compound: O=C1CCC(N2C(=O)c3ccccc3C2=O)C(=O)N1 (centres unmarked) [Thalidomide]
- severity and frequency of nosebleeds [7]: reduce the severity and frequency of nosebleeds

Compound: Cn1ncc(Cl)c1-c1cc(C(=O)N[C@H](CN)Cc2ccc(F)c(F)c2)oc1Cl [Uprosertib]
- pups mortality ([1]; 5 mg·kg−1 injected twice at P3 and P6): high levels of pups mortality
- pup death ([1]; Eng-iKO mice, 1 to 5 mg·kg−1 bodyweight): death of the majority of the pups
- pup death ([1]; Eng-iKO mice, two injections at P3 and P5): death of the majority of the pups
- anti-angiogenic properties (overall conclusion) [3]: potent inhibitor of angiogenesis; also recorded: potent antiangiogenic properties
- number of branch points [3, 8]: marked decrease
- radial expansion [3, 8]: slight decrease
- vascular area [3, 8]: marked decrease

- binding site in co-crystal structure (AKT2): binds in an allosteric binding pocket
Compound: CCCN1C(=O)COc2nc(-c3ccc([C@]4(N)C[C@](C)(O)C4)cc3)c(-c3ccccc3)cc21 [Compound 6]
